Source: the supplement of paper PMC11061612

Experiments:
Experiment in all cases: combination Emax (second highest fraction inhibited in the dose matrix, 72 h); higher = more inhibition; extreme values may be limits of the assay
[1] = tested on: MDA-MB-468 (Breast Carcinoma)
Method in brief: (§1)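 Bliss excess equals the observed combination effect minus the expected value EA + EB − EA·EB, where EA and EB are the effects of each agent alone. Combination Emax is the second-highest inhibition within the matrix. Inhibition was scaled from CellTiter-Glo 2.0 luminescence, with 0 set by vehicle wells and 1 by blank wells, after 72 hours of two-drug dosing of cells plated in 1536-well plates.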

[2] = tested on: HDLM-2 (Hodgkin's Lymphoma)
Method in brief: as §1

[3] = tested on: SU-DHL-6 (B-Cell Non-Hodgkin's Lymphoma)
Method in brief: as §1

[4] = tested on: 8305C (Thyroid Gland Carcinoma)
Method in brief: as §1

[5] = tested on: NCI-H2795 (Mesothelioma)
Method in brief: as §1

[6] = tested on: K5 (Thyroid Gland Carcinoma)
Method in brief: as §1

[7] = tested on: CAL-51 (Breast Carcinoma)
Method in brief: as §1

[8] = tested on: UMC-11 (Other Solid Carcinomas)
Method in brief: as §1

[9] = tested on: Hs-633T (Other Solid Carcinomas)
Method in brief: as §1

[10] = tested on: OVCAR-8 (Ovarian Carcinoma)
Method in brief: as §1

[11] = tested on: NCI-H2461 (Mesothelioma)
Method in brief: as §1

[12] = tested on: 639-V (Bladder Carcinoma)
Method in brief: as §1

[13] = tested on: NCI-H747 (Colorectal Carcinoma)
Method in brief: as §1

[14] = tested on: KYSE-410 (Esophageal Squamous Cell Carcinoma)
Method in brief: as §1

[15] = tested on: SW626 (Colorectal Carcinoma)
Method in brief: as §1

[16] = tested on: Mewo (Melanoma)
Method in brief: as §1

[17] = tested on: HO-1-u-1 (Oral Cavity Carcinoma)
Method in brief: as §1

[18] = tested on: OC-314 (Ovarian Carcinoma)
Method in brief: as §1

[19] = tested on: RT-112 (Bladder Carcinoma)
Method in brief: as §1

Structure (SMILES) | combination Emax [1] | combination Emax [2] | combination Emax [3] | combination Emax [4] | combination Emax [5] | combination Emax [6] | combination Emax [7] | combination Emax [8] | combination Emax [9] | combination Emax [10] | combination Emax [11] | combination Emax [12] | combination Emax [13] | combination Emax [14] | combination Emax [15] | combination Emax [16] | combination Emax [17] | combination Emax [18] | combination Emax [19]
NC1(C(=O)N[C@@H](CCO)c2ccc(Cl)cc2)CCN(c2ncnc3[nH]ccc23)CC1 [Capivasertib] + CCN(CCO)CCCOc1ccc2c(Nc3cc(CC(=O)Nc4cccc(F)c4)[nH]n3)ncnc2c1 [AZD2811] (first compound max 10 µM, 7x7, partner max 1 µM) | 0.561 | 0.395 | 1 | 0.452 | 0.413 | 0.554 | 0.651 | 0.879 | 0.432 | 0.393 | 0.564 | 0.387 | 0.631 | 0.303 | 0.292 | 0.401 | 0.848 | 0.571 | 0.375
CS(=O)(=O)CCNCc1ccc(-c2ccc3ncnc(Nc4ccc(OCc5cccc(F)c5)c(Cl)c4)c3c2)o1 [Lapatinib] + C[C@@H](Oc1cc(-c2cnn(C3CCNCC3)c2)cnc1N)c1c(Cl)ccc(F)c1Cl [Crizotinib] (first compound max 10 µM, 7x7, partner max 10 µM) | 0.959 | 0.552 | 0.983 | 0.94 | 0.949 | 0.984 | 0.691 | 0.703 | 0.934 | 0.79 | 0.91 | 0.853 | 0.926 | 0.934 | 0.626 | 0.537 | 0.961 | 0.881 | 0.941
C=CCn1c(=O)c2cnc(Nc3ccc(N4CCN(C)CC4)cc3)nc2n1-c1cccc(C(C)(C)O)n1 [AZD1775] + C1CN(CCC1(C(=O)N[C@@H](CCO)C2=CC=C(C=C2)Cl)N)C3=NC=NC4=C3C=CN4 [Capivasertib] (first compound max 3 µM, partner max 3 µM) | 0.741 | 0.769 | 0.994 | 0.681 | 0.408 | 0.603 | 0.941 | 0.696 | 0.897 | 0.812 | 0.67 | 0.642 | 0.623 | 0.663 | 0.583 | 0.589 | 0.913 | 0.915 | 0.836
NC1(C(=O)N[C@@H](CCO)c2ccc(Cl)cc2)CCN(c2ncnc3[nH]ccc23)CC1 [Capivasertib] + CC(C)n1c(=O)n(C)c2cnc3cc(F)c(-c4ccc(OCCCN5CCCCC5)nc4)cc3c21 [AZD1390] (first compound max 10 µM, 7x7, partner max 0.3 µM) | 0.518 | 0.298 | 1 | 0.436 | 0.394 | 0.405 | 0.488 | 0.201 | 0.258 | 0.255 | 0.6 | 0.252 | 0.523 | 0.327 | 0.273 | 0.365 | 0.746 | 0.421 | 0.255
NC1(C(=O)N[C@@H](CCO)c2ccc(Cl)cc2)CCN(c2ncnc3[nH]ccc23)CC1 [Capivasertib] + CC(=O)c1c(C)c2cnc(Nc3ccc(N4CCNCC4)cn3)nc2n(C2CCCC2)c1=O [Palbociclib] (first compound max 10 µM, 7x7, partner max 10 µM) | 0.508 | 0.29 | 1 | 0.469 | 0.489 | 0.653 | 0.55 | 0.553 | 0.707 | 0.221 | 0.467 | 0.299 | 0.795 | 0.549 | 0.348 | 0.493 | 0.806 | 0.515 | 0.415
CC(=O)c1c(C)c2cnc(Nc3ccc(N4CCNCC4)cn3)nc2n(C2CCCC2)c1=O [Palbociclib] + CC1(C)CCC(CN2CCN(c3ccc(C(=O)NS(=O)(=O)c4ccc(NCC5CCOCC5)c([N+](=O)[O-])c4)c(Oc4cnc5[nH]ccc5c4)c3)CC2)=C(c2ccc(Cl)cc2)C1 [Venetoclax] (first compound max 10 µM, 7x7, partner max 1 µM) | 0.261 | 0.731 | 0.976 | 0.431 | 0.351 | 0.452 | 0.219 | 0.507 | 0.49 | 0.19 | 0.308 | 0.147 | 0.343 | 0.136 | 0.153 | 0.437 | 0.271 | 0.334 | 0.279
CC(=O)c1c(C)c2cnc(Nc3ccc(N4CCNCC4)cn3)nc2n(C2CCCC2)c1=O [Palbociclib] + Cc1c2c(nn1C)CSCc1cc(n(C)n1)CSc1cc(c3ccccc3c1)OCCCc1c(C(=O)O)n(C)c3c-2c(Cl)ccc13 [AZD5991] (first compound max 10 µM, 7x7, partner max 1 µM) | 0.463 | 0.97 | 1 | 0.666 | 0.823 | 0.541 | 0.357 | 0.638 | 0.519 | 0.129 | 0.377 | 0.269 | 0.608 | 0.407 | 0.336 | 0.569 | 0.367 | 0.334 | 0.568
Cc1nc(Nc2ncc(C(=O)Nc3c(C)cccc3Cl)s2)cc(N2CCN(CCO)CC2)n1 [Dasatinib] + CC(=O)Nc1cccc(-n2c(=O)n(C3CC3)c(=O)c3c(Nc4ccc(I)cc4F)n(C)c(=O)c(C)c32)c1 [Trametinib] (first compound max 2 µM, 7x7, partner max 1 µM) | 0.621 | 0.12 | 1 | 0.763 | 0.972 | 0.929 | 0.43 | 0.136 | 0.939 | 0.671 | 0.431 | 0.466 | 0.909 | 0.546 | 0.849 | 0.589 | 0.713 | 0.781 | 0.584
NC1(C(=O)N[C@@H](CCO)c2ccc(Cl)cc2)CCN(c2ncnc3[nH]ccc23)CC1 [Capivasertib] + COc1nnc2ccc(N3CCC(c4ccc(OCCN5CCN(C)C(=O)[C@H]5C)cc4)CC3)nn12 [AZD5153] (first compound max 10 µM, 7x7, partner max 1 µM) | 0.666 | 0.389 | 1 | 0.495 | 0.398 | 0.929 | 0.651 | 0.768 | 0.519 | 0.732 | 0.526 | 0.622 | 0.855 | 0.56 | 0.642 | 0.433 | 0.91 | 0.818 | 0.383
C[C@@H](c1ccc2nccn2c1)n1nnc2ncc(-c3cnn(C)c3)nc21 [Savolitinib] + CC1(C)CCC(CN2CCN(c3ccc(C(=O)NS(=O)(=O)c4ccc(NCC5CCOCC5)c([N+](=O)[O-])c4)c(Oc4cnc5[nH]ccc5c4)c3)CC2)=C(c2ccc(Cl)cc2)C1 [Venetoclax] (first compound max 1 µM, 7x7, partner max 1 µM) |  | 0.28 | 0.465 | 0.217 | 0.22 | 0.0879 | 0.113 | 0.13 | 0.16 | 0.0706 | 0.301 | 0.121 | 0.181 | 0.124 | 0.129 | 0.194 | 0.0993 | 0.254 | 0.156
CC(=O)c1c(C)c2cnc(Nc3ccc(N4CCNCC4)cn3)nc2n(C2CCCC2)c1=O [Palbociclib] + Cn1cnc2c(F)c(Nc3ccc(Br)cc3Cl)c(C(=O)NOCCO)cc21 [Selumetinib] (first compound max 10 µM, 7x7, partner max 10 µM) | 0.441 | 0.335 | 0.806 | 0.469 | 0.89 | 0.627 | 0.289 | 0.462 | 0.599 | 0.146 | 0.395 | 0.259 | 0.811 | 0.261 | 0.531 | 0.485 | 0.465 | 0.478 | 0.427
COc1nnc2ccc(N3CCC(c4ccc(OCCN5CCN(C)C(=O)[C@H]5C)cc4)CC3)nn12 [AZD5153] + C[C@@H]1COCCN1C2=NC(=NC(=C2)C3(CC3)[S@](=N)(=O)C)C4=C5C=CNC5=NC=C4 [AZD6738] (first compound max 1 µM, 7x7, partner max 10 µM) |  | 0.525 | 0.968 | 0.674 | 0.801 | 0.788 | 0.993 | 0.912 | 0.912 | 0.924 | 0.649 | 0.813 | 0.809 | 0.484 | 0.798 | 0.604 | 0.89 | 0.981 | 0.737
Cn1cnc2c(F)c(Nc3ccc(Br)cc3Cl)c(C(=O)NOCCO)cc21 [Selumetinib] + CCN(CCO)CCCOc1ccc2c(Nc3cc(CC(=O)Nc4cccc(F)c4)[nH]n3)ncnc2c1 [AZD2811] (first compound max 10 µM, 7x7, partner max 1 µM) |  | 0.151 | 0.385 | 0.438 | 0.858 | 0.599 | 0.479 | 0.818 | 0.486 | 0.246 | 0.397 | 0.342 | 0.793 | 0.256 | 0.624 | 0.444 | 0.328 | 0.425 | 0.456
